Measured values reported in patent US9676997B2, “Compositions and methods for stabilizing luminogenic substrates” (Promega Corporation, priority 2014, dated 2017).

Assays:
[1] = Stability of 1.25 mM coelenterazine-h in 50% ethanol and 50% propylene glycol with or without 225 mM ATT, HPLC and Arrhenius plots; type: physicochemical; settings: 225 mM ATT, over time at different temperatures
Procedure: The stability of coelenterazine-h in the presence and absence of ATT was measured over time at different temperatures. Specifically, 1.25 mM coelenterazine-h was present in a solution of 50% ethanol and 50% propylene glycol (i.e., the solution without ATT) or a solution of 50% ethanol and 50% propylene glycol with 225 mM ATT (i.e., the solution with ATT). These two solutions were incubated at −20° C., room temperature (RT), 40° C., or 60° C. and analyzed at for 0 days, 1 day, 3 days, 7 days, 15 days, and 30 days.
(§1) Following incubation, high performance liquid chromatography (HPLC) was utilized to identify the components of the respective solutions at each time point. Specifically, an Agilent 1100 HPLC instrument was used and equipped with a quaternary pump, thermostatted autosampler and column compartment, and a G1311B diode-array detector. The column used was a Synergi-MAX-RP (Phenomenex, Torrance, Calif.) 100 AÅ 50×4.6 2.5 μm. The run on the HPLC was a gradient run with 0.1% TFA in water and acetonitrile. Absorbance was measured at 262 nanometers (nm). Standards of coelenterazine-h and its known degradants were run to confirm both the retention time and absorbance trace. 5 μl of each solution was injected and the retention time of coelenterazine-h was 4.7 minutes at room temperature.
(§2) The results of the HPLC analysis are shown below in Tables 4 and 5 and FIGS. 2A and 2B, in which the values are reported as relative peak area percentage at 262 nm (i.e., the lamba max of the substrate). […] In each of FIGS. 2A and 2B, diamond is 1.25 mM coelenterazine-h incubated over time with or without 225 mM ATT, respectively, at −20° C., triangle is 1.25 mM coelenterazine-h incubated over time with or without 225 mM ATT, respectively, at room temperature (RT), star is 1.25 mM coelenterazine-h incubated over time with or without 225 mM ATT, respectively, at 40° C., and cross is 1.25 mM coelenterazine-h incubated over time with or without 225 mM ATT, respectively, at 60° C.
From the HPLC analysis, the half-life of coelenterazine-h in the presence of ATT at 40° C. and 60° C. was calculated to be 20 days and 5 days, respectively, while the half-life of coelenterazine-h in the absence of ATT at 20° C., 40° C. and 60° C. was calculated to be 24 days, 7.5 days and 2 days, respectively (see Table 6 below).
Additionally, Arrhenius plots were generated for coelenterazine-h in the presence and absence of ATT to calculate the half-life of coelenterazine-h at various temperatures. The Arrhenius equation is as follows: […]
In FIG. 9, the slope was −8131.2, the intercept was 22.6157, and R^2 was 0.9994.
In FIG. 10, the slope was −7310.53, the intercept was 21.4386, and R^2 was 0.9964.

[2] = Stability of 1.25 mM coelenterazine in 50% ethanol and 50% propylene glycol with or without 225 mM ATT, HPLC and Arrhenius plots; type: physicochemical; settings: 225 mM ATT, over time at different temperatures
Procedure: The stability of coelenterazine in the presence and absence of ATT was measured over time at different temperatures. Specifically, 1.25 mM coelenterazine was present in a solution of 50% ethanol and 50% propylene glycol (i.e., the solution without ATT) or a solution of 50% ethanol and 50% propylene glycol with 225 mM ATT (i.e., the solution with ATT). These two solutions were incubated at −20° C., room temperature (RT), 40° C., or 60° C. and analyzed at 0 days, 1 day, 3 days, 7 days, 15 days, and 30 days.
as §1, with “coelenterazine” for “coelenterazine-h”, “3.9” for “4.7”
as §2, with “Tables 1” for “Tables 4”, “and 2” for “and 5”, “FIGS. 1A” for “FIGS. 2A”, “and 1B,” for “and 2B,”, “mM coelenterazine” for “mM coelenterazine-h”
From the HPLC analysis, the half-life of coelenterazine in the presence of ATT at 40° C. and 60° C. was calculated to be 23 days and 5 days, respectively, while the half-life of coelenterazine in the absence of ATT at 40° C. and 60° C. was calculated to be 9.5 days and 2 days, respectively (see Table 3 below).
Additionally, Arrhenius plots were generated for coelenterazine in the presence and absence of ATT to calculate the half-life of coelenterazine at various temperatures. The Arrhenius equation is as follows: […]
In FIG. 7, the slope was −8636.59, the intercept was 24.1199, and R^2 was 0.9983.
In FIG. 8, the slope was −7382.51, the intercept was 21.2598, and R^2 was 0.9570.

Cc1n[nH]c(=S)[nH]c1=O [ATT, 6-methyl-3-thioxo-3,4-dihydro-1,2,4-triazin-5(2H)-one]
stabilization of coelenterazine-h against decomposition [1]: stabilized coelenterazine-h against decomposition over time at different temperatures | stabilization of coelenterazine against decomposition [2]: stabilized coelenterazine against decomposition over time at different temperatures
